Test systems include SF-295; SF-539; NCI-H23; MDA-MB-231; MOLT-4; SF-268; PC-3; DU-145; SK-OV-3; 786-0; RPMI-8226; SR; KM12; SN12C; OVCAR-8; HT-29; M14; OVCAR-4; HOP-62; SNB-75.
Test in all cases: NCI anticancer screen, dose series, 48 h

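How tested: cells in 96-well plates exposed to compound for 48 hours at five concentrations. The concentration for 50% growth inhibition is given as GI50.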 Calls of active or inactive are those of the source. Rule as the data show it: active = GI50 up to about 1.1 µM and inactive = higher.

As for `c1cc2nnnn2nc1N1CCCC1`, the GI50 with SF-295, in the experiment on SF-539, in the experiment on NCI-H23, with MDA-MB-231, in the experiment with MOLT-4 and with SF-268 was > 100 µM (inactive) each time. The GI50 with PC-3, with DU-145, in the experiment with SK-OV-3, with 786-0, in the experiment with RPMI-8226 and in the experiment with SR was > 100 µM (inactive) in each case. Also, the GI50 with KM12, with SN12C, with OVCAR-8, in the experiment on HT-29, in the experiment with M14 and in the experiment with OVCAR-4 was > 100 µM (inactive) in each case.

As for `Cc1ccc2nc(SCC(=O)N/N=C3\C(=O)Nc4ccccc43)n(-c3ccccc3)c(=O)c2c1`, the GI50 was 15.8 µM (inactive) in the experiment with SF-295; 5.7 µM (inactive) in the experiment with SF-539; 16.4 µM (inactive) in the experiment with NCI-H23; 12.2 µM (inactive) in the experiment on HOP-62; 10.9 µM (inactive) in the experiment with MDA-MB-231; 17.6 µM (inactive) in the experiment with MOLT-4. The GI50 in the experiment on SF-268 is 13.7 µM (inactive); in the experiment with PC-3 it was 17.1 µM (inactive); in the experiment with DU-145, 13.4 µM (inactive); in the experiment with SK-OV-3, 13.8 µM (inactive); in the experiment with 786-0, 16 µM (inactive); in the experiment with RPMI-8226, 17.6 µM (inactive). Further, the GI50 was 19.5 µM (inactive) in the experiment with SR; 13.6 µM (inactive) with KM12; 15.7 µM (inactive) with SN12C; 19.4 µM (inactive) in the experiment on HT-29; 16.3 µM (inactive) in the experiment on M14; 13.2 µM (inactive) in the experiment with OVCAR-4.

In the case of `CCCCN1C(=O)CS/C1=N/Nc1nc2c([nH]1)c(=O)n(C)c(=O)n2C`, the GI50 with SF-295 is 7.35 µM (inactive); in the experiment with SF-539, 37.8 µM (inactive); in the experiment with NCI-H23 it was > 100 µM (inactive); in the experiment with HOP-62, 4.62 µM (inactive); with MDA-MB-231, 29 µM (inactive); in the experiment with MOLT-4, 21.8 µM (inactive). Besides, the GI50 in the experiment with SF-268 was 7.74 µM (inactive); in the experiment on PC-3, > 100 µM (inactive); in the experiment on DU-145 it was 19.2 µM (inactive); in the experiment on SK-OV-3, 6.47 µM (inactive); in the experiment with 786-0, 17.3 µM (inactive); with RPMI-8226, 42.4 µM (inactive). In addition, the GI50 in the experiment with SR was 11.9 µM (inactive); with KM12, 6.35 µM (inactive); in the experiment on SN12C it was 33.6 µM (inactive); in the experiment on HT-29 it was 23.9 µM (inactive); in the experiment with M14, 28.5 µM (inactive); in the experiment with OVCAR-4, 19.5 µM (inactive).

With `CC(C)(C)OC(=O)Cn1ncn(NC(=O)Cc2ccccc2)c1=O`, the GI50 in the experiment on SF-295, in the experiment on SF-539, in the experiment with NCI-H23, with HOP-62, with MDA-MB-231 and in the experiment with MOLT-4 was > 10 µM (inactive) each time. Also, the GI50 with SF-268, in the experiment on PC-3, in the experiment with DU-145, with SK-OV-3, in the experiment with 786-0 and with SR was > 10 µM (inactive) in each case. The GI50 in the experiment with KM12, in the experiment with SN12C, with OVCAR-8, in the experiment on HT-29, in the experiment on M14 and with OVCAR-4 was > 10 µM (inactive) in each case.

As for `ClCCCN(CCCCl)c1ccc(/C=N/c2cccc(Cl)c2)cc1`, the GI50 was 15 µM (inactive) in the experiment with SF-295; 53.2 µM (inactive) in the experiment with SF-539; 15.5 µM (inactive) in the experiment with NCI-H23; 18.7 µM (inactive) with HOP-62; 12.2 µM (inactive) with MDA-MB-231; 14.4 µM (inactive) in the experiment on MOLT-4. For the same compound, the GI50 was 21.7 µM (inactive) in the experiment on SF-268; 10.7 µM (inactive) with PC-3; 2.56 µM (inactive) in the experiment with DU-145; 49.5 µM (inactive) in the experiment on SK-OV-3; 18.3 µM (inactive) in the experiment on 786-0; 17.2 µM (inactive) in the experiment with RPMI-8226. The GI50 in the experiment with SNB-75 was 8.93 µM (inactive); in the experiment on KM12 it was 20.5 µM (inactive); with SN12C, 10.4 µM (inactive); in the experiment on OVCAR-8, 6.95 µM (inactive); in the experiment on HT-29, 23.6 µM (inactive); in the experiment with M14, 29.3 µM (inactive). Moreover, in the experiment with OVCAR-4, the GI50 was 9.75 µM (inactive).

As to `CCOC(=O)c1nc2ccccc2nc1Oc1ccc(OC)cc1`, the GI50 with SF-295, in the experiment with SF-539, in the experiment on HOP-62, in the experiment on MDA-MB-231, in the experiment with MOLT-4 and in the experiment on SF-268 was > 100 µM (inactive) in each case. For the same compound, the GI50 in the experiment with PC-3, with DU-145, with SK-OV-3, in the experiment on 786-0, in the experiment with RPMI-8226 and with SR was > 100 µM (inactive) in each case. Moreover, the GI50 with KM12, with SN12C, in the experiment with OVCAR-8, in the experiment on HT-29, with M14 and in the experiment with OVCAR-4 was > 100 µM (inactive) throughout.

For the compound `O=C(NCCCCCCNCc1cccc2ccccc12)Nc1cccc2ccccc12`, the GI50 in the experiment with SF-295, in the experiment on SF-539, with NCI-H23, with HOP-62, in the experiment with MDA-MB-231 and in the experiment with MOLT-4 was > 100 µM (inactive) throughout. Further, the GI50 with SF-268, with PC-3, in the experiment with DU-145, in the experiment on 786-0, in the experiment on RPMI-8226 and in the experiment on SNB-75 was > 100 µM (inactive) each time. Moreover, the GI50 in the experiment with KM12 is > 100 µM (inactive); with SN12C it was > 100 µM (inactive); with OVCAR-8, > 100 µM (inactive); in the experiment on HT-29, > 100 µM (inactive); in the experiment with M14, 34.3 µM (inactive); in the experiment on OVCAR-4, > 100 µM (inactive).

For the compound `O=C1CCSSCCC(=O)NCCN1`, the GI50 with SF-295, in the experiment with SF-539, in the experiment with NCI-H23, in the experiment with HOP-62, with MDA-MB-231 and in the experiment with MOLT-4 was > 100 µM (inactive) each time. Moreover, the GI50 with SF-268, with PC-3, in the experiment on DU-145, with SK-OV-3, with 786-0 and in the experiment on RPMI-8226 was > 100 µM (inactive) in each case. The GI50 in the experiment on SR is 91.2 µM (inactive); with KM12, > 100 µM (inactive); with SN12C, > 100 µM (inactive); with OVCAR-8, > 100 µM (inactive); in the experiment on HT-29 it was > 100 µM (inactive); with M14 it was > 100 µM (inactive). Besides, the GI50 in the experiment with OVCAR-4 was > 100 µM (inactive).

Regarding `CCOC(=O)Cc1csc2[n+]1C(=O)/C(=C/c1cccc(OC)c1O)S2`, the GI50 with SF-295 was 73.5 µM (inactive); in the experiment on SF-539 it was 60.8 µM (inactive); in the experiment with NCI-H23, 33.7 µM (inactive); in the experiment with HOP-62, > 100 µM (inactive); in the experiment with MDA-MB-231 it was 51.5 µM (inactive); in the experiment with MOLT-4 it was 4.43 µM (inactive). Besides, the GI50 was 40.8 µM (inactive) in the experiment with PC-3; 73.3 µM (inactive) with DU-145; > 100 µM (inactive) in the experiment on SK-OV-3; 68.7 µM (inactive) in the experiment on 786-0; 18.7 µM (inactive) in the experiment on SNB-75; 38.1 µM (inactive) in the experiment on KM12. The GI50 is 81.5 µM (inactive) with SN12C; 52.6 µM (inactive) in the experiment with OVCAR-8; 39 µM (inactive) in the experiment with HT-29; 77.6 µM (inactive) in the experiment with M14; 64.4 µM (inactive) in the experiment with OVCAR-4.

Consider `Cc1cc(S(=O)(=O)[N-]/C(=N/S(=O)(=O)c2ccc(Cl)cc2)[n+]2ccc(N(C)C)cc2)c(S)cc1Cl`, for which the GI50 in the experiment on SF-295 is 40.2 µM (inactive); with SF-539 it was 83.4 µM (inactive); with NCI-H23, > 100 µM (inactive); in the experiment on HOP-62, 43.5 µM (inactive); in the experiment on MDA-MB-231 it was > 100 µM (inactive); in the experiment on MOLT-4, 0.656 µM (active). Further, the GI50 was 89.9 µM (inactive) in the experiment on SF-268; 54 µM (inactive) in the experiment with PC-3; > 100 µM (inactive) with DU-145; 41.2 µM (inactive) with SK-OV-3; > 100 µM (inactive) in the experiment with 786-0; 48 µM (inactive) in the experiment with RPMI-8226. In addition, the GI50 is < 0.01 µM (active) in the experiment on SR; > 100 µM (inactive) in the experiment on KM12; > 100 µM (inactive) in the experiment on OVCAR-8; 44.6 µM (inactive) with HT-29; 35.3 µM (inactive) in the experiment on M14; 55.5 µM (inactive) in the experiment on OVCAR-4.

`O=C1OC(=O)C2CCCC3CCCC1C32` (stereo not given): the GI50 in the experiment on SF-295, in the experiment on SF-539, in the experiment with NCI-H23, in the experiment on HOP-62, in the experiment with MDA-MB-231 and with MOLT-4 was > 100 µM (inactive) in each case. The GI50 in the experiment with SF-268, in the experiment with PC-3, in the experiment on DU-145, in the experiment on SK-OV-3, in the experiment on 786-0 and in the experiment with RPMI-8226 was > 100 µM (inactive) in each case. Also, the GI50 in the experiment on SNB-75, in the experiment on KM12, with SN12C, in the experiment on OVCAR-8, with HT-29 and in the experiment on M14 was > 100 µM (inactive) in each case. Further, in the experiment with OVCAR-4, the GI50 was > 100 µM (inactive).

These data come from ChEMBL document CHEMBL1201862, “PubChem BioAssay data set” (2004).
